Our source for the melting point and Kd values is patent US6545049B1, “Dimer-selective RXR modulators and methods for their use” (Ligand Pharmaceuticals Incorporated, priority 1995, dated 2003).

For series [1], the target named is T1, RXRα (Homo sapiens, UniProt P19793).
T1 sequence (P19793 1-462): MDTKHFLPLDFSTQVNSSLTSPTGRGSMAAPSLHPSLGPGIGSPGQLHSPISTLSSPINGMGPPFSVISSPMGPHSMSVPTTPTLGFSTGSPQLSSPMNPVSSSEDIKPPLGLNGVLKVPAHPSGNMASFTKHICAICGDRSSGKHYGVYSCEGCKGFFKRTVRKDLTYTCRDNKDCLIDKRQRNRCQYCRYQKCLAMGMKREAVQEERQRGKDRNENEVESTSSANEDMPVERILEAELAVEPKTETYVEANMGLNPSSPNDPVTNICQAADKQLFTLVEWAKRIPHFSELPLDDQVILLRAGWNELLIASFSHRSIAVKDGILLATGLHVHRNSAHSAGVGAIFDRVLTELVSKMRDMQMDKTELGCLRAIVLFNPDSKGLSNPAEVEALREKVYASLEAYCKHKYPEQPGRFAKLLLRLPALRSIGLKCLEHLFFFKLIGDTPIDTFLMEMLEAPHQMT
The series can be described thus: RXR binding, RXRα. The note with it: -v- tritiated LGD1069 and tritiated 9-cis retinoic acid. On the procedure: (§1) Non-specific binding was defined as that binding remaining in the presence of 500 nM of the appropriate unlabelled compound. At the end of the incubation period, bound from free ligand were separated. The amount of bound tritiated retinoids was determined by liquid scintillation counting of an aliquot (700 μL) of the supernatant fluid or the hydroxylapatite pellet.
(§2) After correcting for non-specific binding, IC50 values were determined. […] The IC50 value was determined graphically from a log-logit plot of the data. The Kd values were determined by application of the Cheng-Prussof equation to the IC50 values, the labeled ligand concentration and the Kd of the labeled ligand.

The target in series [2] is T2, RXRβ (Mus musculus, UniProt P28704).
T2 sequence (P28704 1-520): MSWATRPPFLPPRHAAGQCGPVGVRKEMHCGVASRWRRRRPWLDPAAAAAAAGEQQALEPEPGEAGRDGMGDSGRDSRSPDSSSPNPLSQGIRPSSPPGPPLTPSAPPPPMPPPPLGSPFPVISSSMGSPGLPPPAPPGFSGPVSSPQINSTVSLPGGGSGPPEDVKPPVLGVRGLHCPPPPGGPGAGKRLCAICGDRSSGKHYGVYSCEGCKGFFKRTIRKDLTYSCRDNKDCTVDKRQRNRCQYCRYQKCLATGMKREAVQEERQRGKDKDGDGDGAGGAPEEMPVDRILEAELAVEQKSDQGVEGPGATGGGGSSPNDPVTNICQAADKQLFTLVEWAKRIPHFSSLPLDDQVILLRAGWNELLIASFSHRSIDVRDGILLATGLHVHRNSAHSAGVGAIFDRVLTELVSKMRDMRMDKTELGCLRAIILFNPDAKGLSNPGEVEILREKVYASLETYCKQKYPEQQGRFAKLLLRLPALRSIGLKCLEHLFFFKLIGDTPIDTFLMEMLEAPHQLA
The experiment in a line: RXR binding, RXRβ. The note with it: -v- tritiated LGD1069 and tritiated 9-cis retinoic acid. On the procedure:
as §1, §2

For series [3], the target named is T3, RXRγ (Mus musculus, UniProt P28705).
T3 sequence (P28705 1-463): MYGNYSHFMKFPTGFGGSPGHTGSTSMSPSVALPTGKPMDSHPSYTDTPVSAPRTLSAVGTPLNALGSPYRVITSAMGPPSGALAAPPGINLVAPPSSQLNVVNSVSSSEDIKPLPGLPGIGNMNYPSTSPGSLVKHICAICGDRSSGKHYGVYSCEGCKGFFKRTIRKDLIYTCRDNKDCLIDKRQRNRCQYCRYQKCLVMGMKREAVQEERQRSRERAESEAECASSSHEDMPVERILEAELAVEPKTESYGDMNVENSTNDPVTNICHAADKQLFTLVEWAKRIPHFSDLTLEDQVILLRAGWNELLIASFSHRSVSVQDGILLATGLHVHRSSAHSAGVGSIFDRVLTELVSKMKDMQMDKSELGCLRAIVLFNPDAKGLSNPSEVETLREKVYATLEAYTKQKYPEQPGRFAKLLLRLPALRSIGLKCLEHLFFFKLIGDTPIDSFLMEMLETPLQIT
The series can be described thus: RXR binding, RXRγ. The note with it: -v- tritiated LGD1069 and tritiated 9-cis retinoic acid. On the procedure: as §1, §2

One may read the melting point as the temperature, or range, at which the solid turns liquid. The compound `CCCc1cc2c(cc1C(=O)c1ccc(C(=O)O)cc1)C(C)(C)CCC2(C)C` [Compound 101, 4-[(3-n-propyl-5,6,7,8-tetrahydro-5,5,8,8-tetramethyl-2-naphthyl)carbonyl]benzoic acid] gave a melting point of 252 to 254 °C.

In the case of `Cc1cc2c(cc1C(=O)c1ccc(C(=O)NOCc3ccccc3)cc1)C(C)(C)CCC2(C)C` [Compound 105, 4-[(3,5,5,8,8-pentamethyl-5,6,7,8-tetrahydro-2-naphthyl)carbonyl]benzoic acid O-benzyloxime], the melting point was 169 to 172 °C.

Consider `CCCCCCONC(=O)c1ccc(C(=O)c2cc3c(cc2C)C(C)(C)CCC3(C)C)cc1` [Compound 106, 4-[(3,5,5,8,8-pentamethyl-5,6,7,8-tetrahydro-2-naphthyl)carbonyl]benzoic acid O-hexyloxime], for which the melting point lay in the range of 91 to 95 °C.

On to `CCOc1cc2c(cc1C=Cc1ccc(C(=O)O)cc1)C(C)(C)CCC2(C)C` [Compound 107, 4-[(3-ethoxy-5,6,7,8-tetrahydro-5,5,8,8-tetramethyl-2-naphthyl)ethenyl]benzoic acid], for which the melting point was 195 to 200 °C (dec.).

On to `CCCCOc1cc2c(cc1C(=O)c1ccc(C(=O)O)cc1)C(C)(C)CCC2(C)C` [Compound 111, 4-[(3-butyloxy-5,6,7,8-tetrahydro-5,5,8,8-tetramethyl-2-naphthyl)carbonyl]benzoic acid], for which the melting point was 207 to 210 °C.

In turn, `CCCCOc1cc2c(cc1C=Cc1ccc(C(=O)O)cc1)C(C)(C)CCC2(C)C` [Compound 112, 4-[(3-butyloxy-5,6,7,8-tetrahydro-5,5,8,8-tetramethyl-2-naphthyl)ethenyl]benzoic acid] displayed a melting point of 194 to 196 °C.

`CCCCCCCOc1cc2c(cc1C(=O)c1ccc(C(=O)NO)cc1)C(C)(C)CCC2(C)C` [Compound 115, 4-[(3-heptyloxy-5,6,7,8-tetrahydro-5,5,8,8-tetramethyl-2-naphthyl)carbonyl]benzoic acid oxime] gave a melting point of 200 to 205 °C.

`CCCCCCCOc1cc2c(cc1C=Cc1ccc(C(=O)O)cc1)C(C)(C)CCC2(C)C` [Compound 116, 4-[(3-heptyloxy-5,6,7,8-tetrahydro-5,5,8,8-tetramethyl-2-naphthyl)ethenyl]benzoic acid] showed a melting point of 153 to 155 °C.

As a reminder, the Kd is the free concentration of one partner at which half of the binding sites on the other are occupied at equilibrium, for simple one-to-one binding. Read a high Kd as weaker binding. Consider `CCCCCCOc1cc2c(cc1/C(C)=C/C=C/C(C)=C/C(=O)O)C(C)(C)CCC2(C)C` [Compound 125, (2E, 4E, 6E)-7-[3-hexyloxy-5,6,7,8-tetrahydro-5,5,8,8-tetramethyl-2-naphthalen-2-yl]-3-methylocta-2,4,6-trienoic acid], for which the Kd was found to be 56 nM in series [1], 145 nM in series [2] and 186 nM in series [3].

As to `COC(C)(c1ccc(C(=O)O)cc1)c1cccc2cc3c(cc12)C(C)(C)CCC3(C)C` (centres unmarked) [Compound 141, 4-[1-methoxy-1-(5,6,7,8-tetrahydro-5,5,8,8-tetramethyl-anthracen-1-yl)ethyl)benzoic acid], the Kd in series [1] worked out at 49 nM; in series [2] it was 13 nM; in series [3], 70 nM.

Take `C=C(c1ccc(C(=O)O)cc1)c1cccc2cc3c(cc12)C(C)(C)CCC3(C)C` [Compound 142, 4-[1-(5,6,7,8-tetrahydro-5,5,8,8-tetramethyl-anthracen-1-yl)vinyl)benzoic acid]: the equilibrium dissociation constant (Kd) in series [1] came to 27 nM; in series [2], 90 nM; in series [3], 50 nM.

As for `CCCCCCCOc1c(/C(C)=C/C=C/C(C)=C/C(=O)O)cc(C(C)C)cc1C(C)C` [Compound 146, (2E, 4E, 6E)-7-(3,5-diisopropyl-2-n-heptyloxyphenyl)-3-methylocta-2,4,6-trienoic acid], the Kd in series [1] stood at 46 nM; in series [2] it was 100 nM; in series [3], 116 nM.

Take `CCCCCCCOc1c(C(C)C)cc(C(C)C)cc1C(C)C/C=C/C(C)=C/C(=O)O` (centres unmarked) [Compound 148, (2E, 4E)-7-(3,5-diisopropyl-2-n-heptyloxyphenyl)-3-methylocta-2,4-dienoic acid]: the Kd in series [1] amounted to 53 nM; in series [2] it was 87 nM; in series [3] it was 84 nM.

In the case of `CCCCCCCOc1c(C(C)C)cc(C(C)C)cc1C(C)C/C=C/C(C)=C\C(=O)O` (centres unmarked) [Compound 149, (2Z, 4E)-7-(3,5-diisopropyl-2-n-heptyloxyphenyl)-3-methylocta-2,4-dienoic acid], the figures for the Kd in series [1], in series [2] and in series [3] were 16 nM, 37 nM and 42 nM, respectively.

For `CCCOc1cc2c(cc1C1=C(/C=C/C(C)=C/C(=O)O)CCC1)C(C)(C)CCC2(C)C` [Compound 158, (2E, 4E)-5-[2-(5,5,8,8-tetramethyl-3-propyloxy-5,6,7,8-tetrahydronaphthalen-2yl)cyclopent-1-en-1-yl]-3-methyl pentadienoic cid], the Kd worked out at 21 nM in series [1], 53 nM in series [2] and 106 nM in series [3].

With `CON=C(c1ccc(C(=O)O)cc1)c1cc2c(cc1OCc1ccccc1)C(C)(C)CCC2(C)C` [Compound 163, trans-4-[(3-benzyloxy-5,6,7,8-tetrahydro-5,5,8,8-tetramethyl-2-naphthyl)carbonyl]benzoic acid O-methyloxime], the results for the Kd in series [1], in series [2] and in series [3] were 2 nM, 6 nM and 6 nM, respectively.

`CC(C=CC=C(C)c1cc2c(cc1OCC(C)C)C(C)(C)CCC2(C)C)=CC(=O)O` [Compound 169, (2E, 4E, 6Z)-7-[3-isobutyloxy-5,6,7,8-tetrahydro-5,5,8,8-tetramethyl-2-naphthalen-2-yl]-3-methyl-octa-2,4,6-trienoic acid]: the Kd turned out to be 5 nM in series [1], 14 nM in series [2] and 31 nM in series [3].

Turning to `CCCCCOc1cc2c(cc1/C(C)=C/C=C/C(C)=C/C(=O)O)C(C)(C)CCC2(C)C` [Compound 170, (2E, 4E, 6E)-7-[3-pentyloxy-5,6,7,8-tetrahydro-5,5,8,8-tetramethyl-2-naphthalen-2-yl]-3-methyl-octa-2,4,6-trienoic acid], the values for the Kd in series [1], in series [2] and in series [3] were 11 nM, 41 nM and 78 nM, respectively.

On to `CCCCCCCOc1cc2c(cc1\C(C)=C/C=C/C(C)=C/C(=O)O)C(C)(C)CCC2(C)C` [Compound 173, (2E, 4E, 6Z)-7-[3-heptyloxy-5,6,7,8-tetrahydro-5,5,8,8-tetramethyl-2-naphthalen-2-yl]-3-methyl-octa-2,4,6-trienoic acid], for which the Kd in series [1] was determined as 4 nM; in series [2] it was 12 nM; in series [3], 21 nM.

Consider `COc1ccc(COc2cc3c(cc2/C(C)=C/C=C/C(C)=C/C(=O)O)C(C)(C)CCC3(C)C)cc1` [Compound 174, (2E, 4E, 6E)-7-[3-(4-methoybenzyloxy)-5,6,7,8-tetrahydro-5,5,8,8-tetramethyl-2-naphthalen-2-yl]-3-methyl-octa-2,4,6-trienoic acid], for which the Kd in series [1] came to 5 nM; in series [2], 43 nM; in series [3], 46 nM.

As to `CCCOc1cc2c(cc1C(C)C/C=C/C(C)=C/C(=O)O)C(C)(C)CCC2(C)C` (centres unmarked) [Compound 175, (2E, 4E)-7-[3-propoxy-5,6,7,8-tetrahydro-5,5,8,8-tetramethyl-2-naphthalen-2-yl]-3-methyl-octa-2,4-dienoic acid], the Kd in series [1] was determined as 11 nM; in series [2], 21 nM; in series [3], 31 nM.
